According to the NIST ThermoML archive (doi:10.1016/j.jct.2003.12.005):

Columns and labels:
[1] = xn = mol fraction of the nth substance listed; settings: 101.3 kPa, Liquid
[2] = 101.3 kPa, Liquid

CCC(C)O (stereo not given) [butan-2-ol] + CCCCCCCC
[1]
Settings	mass density, 293.15 K [kg/m3]	mass density, 298.15 K [kg/m3]	mass density, 303.15 K [kg/m3]	speed of sound, 293.15 K [m/s]	speed of sound, 298.15 K [m/s]	speed of sound, 303.15 K [m/s]	viscosity, 293.15 K [mPa·s]	viscosity, 298.15 K [mPa·s]	viscosity, 303.15 K [mPa·s]
x1 = 0.0481	704.6	700.5	696.4	1190	1169	1148	0.541	0.508	0.478
x1 = 0.0974	707.2	703.1	698.9	1187	1167	1146	0.554	0.519	0.488
x1 = 0.1984	713.3	709.2	704.9	1184	1163	1143	0.582	0.544	0.511
x1 = 0.289	719.4	715.2	711	1182	1161	1141	0.624	0.579	0.541
x1 = 0.3964	727.7	723.5	719.1	1181	1161	1141	0.697	0.644	0.599
x1 = 0.4923	736.2	731.9	727.5	1183	1162	1142	0.78	0.713	0.645
x1 = 0.5931	746.5	742.1	737.8	1187	1166	1146	0.927	0.84	0.761
x1 = 0.6922	758.1	753.8	749.4	1193	1173	1153	1.162	1.031	0.919
x1 = 0.7987	772.5	768.2	763.9	1202	1182	1163	1.574	1.361	1.191
x1 = 0.8988	788.3	784	779.7	1214	1195	1176	2.267	1.932	1.662
x1 = 0.9495	797.2	793	788.8	1222	1203	1185	2.809	2.353	1.99
x1 = 1	806.8	802.7	798.5	1230	1212	1194	3.623	2.995	2.493

CCC(C)O (stereo not given) [butan-2-ol] + CCCCCCCCCC
[1], x1 = 1
Settings	mass density [kg/m3]	speed of sound [m/s]	viscosity [mPa·s]
293.15 K	806.8	1230	3.623
298.15 K	802.7	1212	2.995
303.15 K	798.5	1194	2.493

CCCCCCCCCCCC [dodecane] + CCC(C)O
[1]
Settings	mass density, 293.15 K [kg/m3]	mass density, 298.15 K [kg/m3]	mass density, 303.15 K [kg/m3]	speed of sound, 293.15 K [m/s]	speed of sound, 298.15 K [m/s]	speed of sound, 303.15 K [m/s]	viscosity, 293.15 K [mPa·s]	viscosity, 298.15 K [mPa·s]	viscosity, 303.15 K [mPa·s]
x2 = 0	748.5	744.9	741.3	1297	1278	1259	1.454	1.327	1.219
x2 = 0.0486	749.3	745.6	741.9	1293	1274	1255	1.44	1.314	1.204
x2 = 0.0976	750.2	746.4	742.7	1289	1270	1251	1.431	1.305	1.194
x2 = 0.2046	752.5	748.7	744.9	1282	1263	1243	1.429	1.299	1.188
x2 = 0.2956	754.9	751.1	747.2	1276	1256	1237	1.432	1.297	1.179
x2 = 0.3959	758.1	754.2	750.3	1268	1249	1230	1.457	1.316	1.196
x2 = 0.4979	762.2	758.3	754.3	1261	1242	1222	1.503	1.351	1.22
x2 = 0.598	767.2	763.2	759.1	1255	1235	1216	1.603	1.425	1.276
x2 = 0.7021	773.9	769.8	765.6	1248	1229	1209	1.798	1.576	1.392
x2 = 0.8008	781.9	777.8	773.6	1242	1223	1204	2.068	1.785	1.566
x2 = 0.9002	792.7	788.5	784.3	1236	1217	1199	2.576	2.184	1.866
x2 = 0.9504	799.1	794.9	790.7	1233	1215	1196	2.989	2.508	2.122

CCCCCCCC [octane]
[2]
Settings	mass density [kg/m3]	speed of sound [m/s]	viscosity [mPa·s]
293.15 K	702.6	1193	0.538
298.15 K	698.5	1173	0.506
303.15 K	694.5	1152	0.478

CCCCCCCCCC [decane] + CCC(C)O
[1]
Settings	mass density, 293.15 K [kg/m3]	mass density, 298.15 K [kg/m3]	mass density, 303.15 K [kg/m3]	speed of sound, 293.15 K [m/s]	speed of sound, 298.15 K [m/s]	speed of sound, 303.15 K [m/s]	viscosity, 293.15 K [mPa·s]	viscosity, 298.15 K [mPa·s]	viscosity, 303.15 K [mPa·s]
x2 = 0	729.9	726.1	722.3	1254	1235	1215	0.911	0.845	0.787
x2 = 0.0488	730.9	727.1	723.2	1250	1230	1210	0.9	0.833	0.774
x2 = 0.0992	732.4	728.5	724.6	1246	1226	1207	0.905	0.836	0.776
x2 = 0.2038	736.2	732.2	728.2	1240	1220	1201	0.926	0.854	0.791
x2 = 0.3041	740.4	736.4	732.4	1235	1215	1195	0.956	0.88	0.812
x2 = 0.3972	745	741	736.9	1230	1211	1191	1.008	0.922	0.847
x2 = 0.498	751	746.9	742.8	1227	1207	1187	1.09	0.989	0.901
x2 = 0.5972	758.1	754	749.8	1224	1204	1185	1.222	1.091	0.983
x2 = 0.703	767.5	763.3	759	1223	1203	1184	1.454	1.286	1.142
x2 = 0.8001	777.7	773.5	769.2	1224	1204	1185	1.787	1.548	1.351
x2 = 0.9002	790.5	786.4	782.1	1225	1207	1188	2.389	2.026	1.736
x2 = 0.9497	798.2	794	789.8	1228	1209	1191	2.879	2.418	2.047

CCCCCCCC [octane] + CCC(C)O
[1], x2 = 0
Settings	mass density [kg/m3]	speed of sound [m/s]	viscosity [mPa·s]
293.15 K	702.6	1193	0.538
298.15 K	698.5	1173	0.506
303.15 K	694.5	1152	0.478

CCC(C)O (stereo not given) [butan-2-ol] + CCCCCCCCCCCC
[1], x1 = 1
Settings	mass density [kg/m3]	speed of sound [m/s]	viscosity [mPa·s]
293.15 K	806.8	1230	3.623
298.15 K	802.7	1212	2.995
303.15 K	798.5	1194	2.493
